Data on one compound can be found in patent publication US20230331739A1, “INDOLO HEPTAMYL OXIME ANALOG CRYSTAL AS PARP INHIBITOR AND METHOD FOR PREPARING SAME” (CHIA TAI TIANQING PHARMACEUTICAL GROUP CO., LTD., priority 2020, published 2023).

Series [1] concerns MDA-MB-436 cells with BRCA1 mutation. The experiment in a line: Anti-proliferation study on MDA-MB-436 cells (CellTiter-Glo). The format is cell-based. The settings on record: Homo sapiens, MDA-MB-436, 168 h; 7 days incubation. The procedure: Materials: test compounds; RPMI-1640 medium; fetal bovine serum; penicillin/streptomycin antibiotic; MDA-MB-436 cells; Envision Multimode Plate Reader (PerkinElmer). MDA-MB-436 cells were seeded in a white 96-well plate by adding 80 μL of cell suspension (containing 3000 MDA-MB-436 cells) to each well. The cell plate was incubated in a CO2 incubator overnight. The test compounds were serially 5-fold diluted to the 8th concentration with a multichannel pipette, i.e., from 2 mM to 26 nM, in duplicate. 78 μL of medium was added to an intermediate plate, and the serially diluted compound was transferred to the intermediate plate at 2 μL per well. After being mixed well, the mixture was transferred to the cell plate at 20 μL per well. […] Another cell plate was provided for reading signal values on the day of compound addition and these signal values were used as Max values in data analysis. Promega CellTiter-Glo was added to the cell plate at 25 μL per well and the luminescence signals were stabilized by incubation for 10 min at room temperature. Readings were taken using a PerkinElmer Envision Multimode Plate Reader. […]

Series [2] deals with CYP2D6 (Homo sapiens (Human), UniProt P10635). The series can be described thus: Inhibition against cytochrome P450 isoenzymes, CYP2D6. The format is in vitro ADME. As to conditions: human liver microsomes. The procedure:
The inhibition of the test compound against different subtypes of the human cytochrome P450 isoenzyme was determined. The test compound, a standard inhibitor (100×final concentration) and a mixed substrate working solution were prepared; the microsomes frozen in a refrigerator at −80° C. were taken out and thawed. […]

Series [3] is described as follows: Metabolic stability in liver microsomes, rat. The format is in vitro ADME. The settings on record: 1 μM, 0.5 mg/mL. The procedure: Objective: To test the metabolic stability of the test compound in liver microsomes of three species.
Procedures: 1 μM test compound and microsomes (0.5 mg/mL) were incubated at 37° C. in the presence of an NADPH regeneration system. Positive controls were testosterone ([…]), propylamine propiophenone (2D6 substrate) and diclofenac (2C9 substrate). At 37° C., positive controls were incubated with microsomes (0.5 mg/mL) in the presence of an NADPH regeneration system. The reaction was stopped by direct mixing of the sample with cold acetonitrile containing an internal standard at various time points (0, 5, 10, 20, 30 and 60 min). The compound and microsomes were incubated for 60 min in the absence of an NADPH regeneration system. One replicate (n=1) was set at each time point. The samples were analyzed by LC/MS/MS; the concentration of the compound was characterized by the ratio of the analyte peak area to the internal standard peak area.
On the technique in general: Microsomes from liver hold many membrane-bound enzymes, among them those of drug oxidation.

Series [4] in a line: Single-dose pharmacokinetic study in mice. It counts as in vivo, male C57BL/6 mice. The procedure:
Objectives: To evaluate the pharmacokinetic behavior in male C57BL/6 mice and to determine the drug concentrations of the compound in the plasma, liver and cerebrospinal fluid after a single dose.
Procedures: Healthy adult male C57BL/6 mice were selected for intragastric administration. The candidate compound was mixed with an appropriate amount of 10% DMSO/90% (20% hydroxypropyl-@-cyclodextrin), vortexed and sonicated to prepare a 0.5 mg/mL clear solution for later use. After the mice were administered intravenously at 1 mg/kg and orally at 5 mg/kg, whole blood was collected at certain time points. Plasma was separated, and liver and cerebrospinal fluid were collected. After pretreatment of the samples, the drug concentration was measured by LC-MS/MS, and pharmacokinetic parameters were calculated using Phoenix WinNonlin software.

Setting [5] is: male, C57BL/6, mouse, plasma, IV: 1 mg/kg PO: 5 mg/kg.

pIC50: −log10 of the molar value. Like-named read-outs stand apart in the source and are kept apart here.

Chain of CYP2D6 (P10635 whole entry): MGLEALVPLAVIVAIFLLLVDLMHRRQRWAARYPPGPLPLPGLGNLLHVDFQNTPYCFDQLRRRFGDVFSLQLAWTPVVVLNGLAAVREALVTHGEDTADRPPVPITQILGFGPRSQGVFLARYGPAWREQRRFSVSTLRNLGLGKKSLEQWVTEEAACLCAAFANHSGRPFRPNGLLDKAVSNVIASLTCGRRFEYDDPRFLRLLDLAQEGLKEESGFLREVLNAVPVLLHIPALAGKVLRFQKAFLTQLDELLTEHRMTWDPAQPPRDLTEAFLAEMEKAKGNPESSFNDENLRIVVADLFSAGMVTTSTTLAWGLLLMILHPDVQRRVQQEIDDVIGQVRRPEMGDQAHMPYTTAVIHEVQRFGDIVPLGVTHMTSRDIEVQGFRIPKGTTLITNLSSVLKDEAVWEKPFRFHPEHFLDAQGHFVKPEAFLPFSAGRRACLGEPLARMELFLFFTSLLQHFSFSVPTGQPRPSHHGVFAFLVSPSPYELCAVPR

As usually defined, the pIC50 is the negative decadic logarithm of the IC50, by convention in mol/L. Read a high pIC50 as a small IC50. Broadly, the IC50 is the point on the concentration scale where inhibition reaches its midpoint. What is called bioavailability is dose-corrected exposure relative to a reference, in per cent. A word on the half-life: it is the time needed for the level to fall by half in the phase considered. Lower therefore signals fast loss. As for `C[C@]1(c2ccc(-c3[nH]c4cc(F)cc5c4c3CONC5=O)cc2)CCCN1` [Compound 1], the negative-log IC50 (pIC50) in series [1] was 7.91. This compound also displayed an IC50 in series [2] of 11.6 µM. Besides, the “Residual content after 60 min of incubation” value in series [3] stood at 31.8%. This compound also registered a Maximum concentration in series [4] (IV: 1 mg/kg PO: 5 mg/kg) of 240 nM. For the same compound, the AUC(0-t) came out at 0.958 µM·h in series [4] (male, C57BL/6, mouse, plasma, IV 1 mg/kg, read-out: AUC0-last (intravenous injection)) and 1.19 µM·h in series [4] (male, C57BL/6, mouse, plasma, PO 5 mg/kg, read-out: AUC0-last (oral)). In series [4] (setting [5]), the bioavailability was 24.8%. This compound also gave a half-life in series [4] (setting [5]) of 3.02 h. Also, the Vd in series [4] (male, C57BL/6, mouse, plasma, IV: 1 mg/kg PO: 5 mg/kg, read-out: Apparent volume of distribution) stood at 9.44 L/kg. In series [4] (male, C57BL/6, mouse, plasma, IV: 1 mg/kg PO: 5 mg/kg, read-out: Clearance rate), the clearance was 41 mL/min/kg.
